Results published in patent US20120172359A1 (NOVARTIS AG, priority 2010, published 2012).
Structures can show the parent of a compound that is named as a salt.

Target: Human BACE-1 (Homo sapiens, UniProt P56817)
Assay: Test 1: Inhibition of Human BACE-1
Assay type: biochemical
Settings: Test 1; recombinant BACE-1 (extracellular domain), acetate buffer pH 4.5, 1 hour with test compound at room temperature, fluorescence-quenched peptide substrate; read-out: Bace IC50

Sequence of Human BACE-1 (P56817 46-457 limits assumed): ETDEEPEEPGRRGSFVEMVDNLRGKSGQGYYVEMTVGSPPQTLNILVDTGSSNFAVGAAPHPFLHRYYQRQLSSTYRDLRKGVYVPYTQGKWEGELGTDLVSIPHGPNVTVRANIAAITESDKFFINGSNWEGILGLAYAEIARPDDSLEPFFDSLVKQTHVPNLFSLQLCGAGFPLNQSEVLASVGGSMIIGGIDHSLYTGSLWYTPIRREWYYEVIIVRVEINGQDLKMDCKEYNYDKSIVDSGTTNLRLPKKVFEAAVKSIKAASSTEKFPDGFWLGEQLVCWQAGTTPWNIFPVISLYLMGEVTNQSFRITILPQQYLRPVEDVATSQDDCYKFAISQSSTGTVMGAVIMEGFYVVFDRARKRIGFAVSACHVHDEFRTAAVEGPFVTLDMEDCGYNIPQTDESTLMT

Compound	IC50
Cn1cc([N+](=O)[O-])c(C(=O)Nc2ccc(F)c([C@]3(C(F)F)COCC(N)=N3)c2)n1 [Example 151, 1-Methyl-4-nitro-1H-pyrazole-3-carboxylic acid [3-((R)-5-amino-3-difluoromethyl-3,6-dihydro-2H-[1,4]oxazin-3-yl)-4-fluoro-phenyl]-amide hydrochloride]	1200 nM
C[C@@]1(c2cc(NC(=O)c3ncc(Cl)cc3N)ccc2F)CO[C@@](C)(C(F)(F)F)C(N)=N1 [Example 153, 3-Amino-5-chloro-pyridine-2-carboxylic acid [3-((3R,6R)-5-amino-3,6-dimethyl-6-trifluoro-methyl-3,6-dihydro-2H-[1,4]oxazin-3-yl)-4-fluoro-phenyl]amide]	8 nM
CC1(c2cc(NC(=O)c3ncc(C(F)(F)F)cc3Cl)ccc2F)N=C(N)COCC1(F)F (stereo not drawn) [Example 154, 3-Chloro-5-trifluoromethyl-pyridine-2-carboxylic acid [3-(3-amino-6,6-difluoro-5-methyl-2,5,6,7-tetrahydro-[1,4]oxazepin-5-yl)-4-fluoro-phenyl]-amide]	120 nM
COc1cc(Br)cnc1C(=O)Nc1ccc(F)c(C2(C)N=C(N)COCC2(F)F)c1 (stereo not drawn) [Example 155, 5-Bromo-3-methoxy-pyridine-2-carboxylic acid [3-(3-amino-6,6-difluoro-5-methyl-2,5,6,7-tetrahydro-[1,4]oxazepin-5-yl)-4 fluoro-phenyl]-amide]	180 nM
CC1(c2cc(NC(=O)c3ccc(C#N)cn3)ccc2F)N=C(N)COCC1(F)F (stereo not drawn) [Example 156, 5-Cyano-pyridine-2-carboxylic acid [3-(3-amino-6,6-difluoro-5 methyl-2,5,6,7-tetrahydro[1,4]oxazepin-5-yl)-4 fluoro-phenyl]-amide]	34 nM
NC1=N[C@@](c2cc(NC(=O)c3cc4cncnc4[nH]3)ccc2F)(C(F)F)COC1 [Example 157, 7H-Pyrrolo[2,3-d]pyrimidine-6-carboxylic acid [3-((R)-5-amino-3-difluoromethyl-3,6-dihydro-2H-[1,4]oxazin-3-yl)-4-fluoro-phenyl]-amide]	5200 nM
COCCOc1cnc(C(=O)Nc2ccc(F)c([C@]3(C(F)F)COCC(N)=N3)c2)c(N)n1 [Example 158, 3-Amino-5-(2-methoxy-ethoxy)-pyrazine-2-carboxylic acid [3-((R)-5-amino-3-difluoromethyl-3,6-dihydro-2H-[1,4]oxazin-3-yl)-4-fluoro-phenyl]amide]	18 nM
CCc1ccc(C(=O)Nc2ccc(F)c([C@]3(C(F)F)COCC(N)=N3)c2)nc1 [Example 159]	130 nM
NC1=N[C@@](c2cc(NC(=O)c3ncc(Cl)cc3N)ccc2F)(C(F)F)COC1 [Example 160, 3-Amino-5-chloro-pyridine-2-carboxylic acid [3-((R)-5-amino-3-difluoromethyl-3,6-dihydro-2H-[1,4]oxazin-3-yl)-4-fluoro-phenyl]-amide]	12 nM
COc1cnc(C(=O)Nc2ccc(F)c([C@]3(C(F)F)COCC(N)=N3)c2)c(Cl)c1 [Example 161, 3-Chloro-5-methoxy-pyridine-2-carboxylic acid [3-((R)-5-amino-3-difluoromethyl-3,6-dihydro-2H-[1,4]oxazin-3-yl)-4-fluoro-phenyl]-amide]	66 nM
NC1=N[C@@](c2cc(NC(=O)c3ccc(=O)[nH]c3)ccc2F)(C(F)F)COC1 [Example 162, 6-Oxo-1,6-dihydro-pyridine-3-carboxylic acid [3-((R)-5-amino-3-difluoromethyl-3,6-dihydro-2H-[1,4]oxazin-3-yl)-4-fluoro-phenyl]-amide]	8500 nM
NC1=N[C@@](c2cc(NC(=O)c3cc4cccn4cn3)ccc2F)(C(F)F)COC1 [Example 163, Pyrrolo[1,2-c]pyrimidine-3-carboxylic acid [3-((R)-5-amino-3-difluoromethyl-3,6-dihydro-2H-[1,4]oxazin-3-yl)-4-fluoro-phenyl]-amide]	680 nM
NC1=N[C@@](c2cc(NC(=O)c3ncc(Br)cc3N)ccc2F)(C(F)F)COC1 [Example 165, 3-Amino-5-bromo-pyridine-2-carboxylic acid [3-((R)-5-amino-3-difluoromethyl-3,6-dihydro-2H-[1,4]oxazin-3-yl)-4-fluoro-phenyl]-amide]	8 nM
CCn1ccnc1C(=O)Nc1ccc(F)c([C@]2(C(F)F)COCC(N)=N2)c1 [Example 166, 1-Ethyl-1H-imidazole-2-carboxylic acid [3-((R)-5-amino-3-difluoromethyl-3,6-dihydro-2H-[1,4]oxazin-3-yl)-4-fluoro-phenyl]amide]	1200 nM
C#CCOc1cnc(C(=O)Nc2ccc(F)c([C@]3(C(F)F)COCC(N)=N3)c2)cn1 [Example 167, 5-Prop-2-ynyloxy-pyrazine-2-carboxylic acid [3-((R)-5-amino-3-difluoromethyl-3,6-dihydro-2H-[1,4]oxazin-3-yl)-4-fluoro-phenyl]-amide]	3 nM
Cc1nc(C(=O)Nc2ccc(F)c([C@]3(C(F)F)COCC(N)=N3)c2)c(N)o1 [Example 168, 5-Amino-2-methyl-oxazole-4-carboxylic acid [3-((R)-5-amino-3-difluoromethyl-3,6-dihydro-2H-[1,4]oxazin-3-yl)-4-fluoro-phenyl]-amide]	260 nM
NC1=N[C@@](c2cc(NC(=O)c3ncc(Cl)cc3O)ccc2F)(C(F)F)COC1 [Example 169, 5-Chloro-3-hydroxy-pyridine-2-carboxylic acid [3-((R)-5-amino-3-difluoromethyl-3,6-dihydro-2H-[1,4]oxazin-3-yl)-4-fluoro-phenyl]-amide]	12 nM
CC(C)Oc1cnc(C(=O)Nc2ccc(F)c([C@]3(C(F)F)COCC(N)=N3)c2)cn1 [Example 170, 5-Isopropoxy-pyrazine-2-carboxylic acid [3-((R)-5-amino-3-difluoromethyl-3,6-dihydro-2H-[1,4]oxazin-3-yl)-4-fluoro-phenyl]-amide]	340 nM
CCOc1cnc(C(=O)Nc2ccc(F)c([C@]3(C(F)F)COCC(N)=N3)c2)cn1 [Example 171, 5-Ethoxy-pyrazine-2-carboxylic acid [3-((R)-5-amino-3-difluoromethyl-3,6-dihydro-2H-[1,4]oxazin-3-yl)-4-fluoro-phenyl]amide]	49 nM
Cc1c(C(=O)Nc2ccc(F)c([C@]3(C(F)F)COCC(N)=N3)c2)oc2ccc(CN(C)C)cc12 [Example 172, 5-Dimethylaminomethyl-3-methyl-benzofuran-2-carboxylic acid [3-((R)-5-amino-3-difluoromethyl-3,6-dihydro-2H-[1,4]oxazin-3-yl)-4-fluoro-phenyl]-amide]	9 nM
Cc1c(C(=O)Nc2ccc(F)c([C@]3(C(F)F)COCC(N)=N3)c2)nnn1C [Example 173, 1,5-Dimethyl-1H-[1,2,3]triazole-4-carboxylic acid [3-((R)-5-amino-3-difluoromethyl-3,6-dihydro-2H-[1,4]oxazin-3-yl)-4-fluoro-phenyl]-amide]	> 10000 nM
COc1cnc(C(=O)Nc2ccc(F)c([C@]3(C(F)F)COCC(N)=N3)c2)c(C)n1 [Example 174, 5-Methoxy-3-methyl-pyrazine-2-carboxylic acid [3-((R)-5-amino-3-difluoromethyl-3,6-dihydro-2H-[1,4]oxazin-3-yl)-4-fluoro-phenyl]-amide]	210 nM
Cc1cc(OC(F)F)cnc1C(=O)Nc1ccc(F)c([C@]2(C(F)F)COCC(N)=N2)c1 [Example 176, 5-Difluoromethoxy-3-methyl-pyridine-2-carboxylic acid [3-((R)-5-amino-3-difluoromethyl-3,6-dihydro-2H-[1,4]oxazin-3-yl)-4-fluoro-phenyl]amide]	18 nM
Cc1cc(OCF)cnc1C(=O)Nc1ccc(F)c([C@]2(C(F)F)COCC(N)=N2)c1 [Example 177, 5-Fluoromethoxy-3-methyl-pyridine-2-carboxylic acid [3-((R)-5-amino-3-difluoromethyl-3,6-dihydro-2H-[1,4]oxazin-3-yl)-4-fluoro-phenyl]-amide]	29 nM
COCCOc1cnc(C(=O)Nc2ccc(F)c([C@]3(C(F)F)COCC(N)=N3)c2)c(C)n1 [Example 178, 5-(2-Methoxy-ethoxy)-3-methyl-pyrazine-2-carboxylic acid [3-((R)-5-amino-3-difluoromethyl-3,6-dihydro-2H-[1,4]oxazin-3-yl)-4-fluoro-phenyl]-amide]	170 nM
COc1cnc(C(=O)Nc2ccc(F)c([C@]3(C(F)F)COCC(N)=N3)c2)c(OC)c1 [Example 179, 3,5-Dimethoxy-pyridine-2-carboxylic acid [3-((R)-5-amino-3-difluoromethyl-3,6-dihydro-2H-[1,4]oxazin-3-yl)-4-fluoro-phenyl]-amide]	920 nM
COCCOc1ccc(C(=O)Nc2ccc(F)c([C@]3(C(F)F)COCC(N)=N3)c2)nc1 [Example 180, 5-(2-Methoxy-ethoxy)-pyridine-2-carboxylic acid [3-((R)-5-amino-3-difluoromethyl-3,6-dihydro-2H-[1,4]oxazin-3-yl)-4-fluoro-phenyl]-amide]	340 nM
COCCOc1cnc(C(=O)Nc2ccc(F)c([C@]3(C(F)F)COCC(N)=N3)c2)c(F)c1 [Example 181, 3-Fluoro-5-(2-methoxy-ethoxy)-pyridine-2-carboxylic acid [3-((R)-5-amino-3-difluoromethyl-3,6-dihydro-2H-[1,4]oxazin-3-yl)-4-fluoro-phenyl]-amide]	340 nM
CC#CCOc1cnc(C(=O)Nc2ccc(F)c([C@]3(C(F)F)COCC(N)=N3)c2)c(C)n1 [Example 182, 5-But-2-ynyloxy-3-methyl-pyrazine-2-carboxylic acid [3-((R)-5-amino-3-difluoromethyl-3,6-dihydro-2H-[1,4]oxazin-3-yl)-4-fluoro-phenyl]-amide]	4 nM
COCc1cnc(C(=O)Nc2ccc(F)c([C@]3(C(F)F)COCC(N)=N3)c2)c(Cl)c1 [Example 183, 3-Chloro-5-methoxymethyl-pyridine-2-carboxylic acid [3-((R)-5-amino-3-difluoromethyl-3,6-dihydro-2H-[1,4]oxazin-3-yl)-4-fluoro-phenyl]-amide]	700 nM
